Results reported in US9249086B2, “Carboxylic acid ALA esters” (Photocure ASA, priority 2012, dated 2016).
Where a name gives a salt, the structure may show the parent alone.

Tests used:
[1] = system: S. aureus strain DSM 20231 (ATCC 12600); experiment: Dark toxicity in bacteria; type: cell-based, Staphylococcus aureus; details: 0.001, 0.1, 1 and 10 mM, plate not illuminated
Description: S. aureus strain DSM 20231 (ATCC 12600). The bacterial strain was grown for 24 hours on heart infusion agar (Difco) at 35-37° C. prior to carrying out the experiment and re-suspended in 20 mM PIPES, pH 7.2-7.4 at a concentration corresponding to a McFarland 0.5 standard (approximately 1-5×10^8 CFU/mL). In order to ensure viable cell cultures and to check the inoculum size and purity, bacterial stocks were made immediately prior to experimentation and the CFU/mL determined in a standard colony assay.
“Dark toxicity”, i.e. the toxic effect of the compounds in the absence of light (and therefore unrelated to PDT effects), can include bacteria cell death and therefore can interfere with the accurate measurement of the PDT effect, which also results in bacterial cell death. Dark toxicity can be measured by determining the toxicity of each compound under the same experimental conditions, but in the absence of light, thereby avoiding any PDT effect. The use of the compounds of the invention under conditions that produce low dark toxicity is advantageous because dark toxicity effects could also include harming or killing non-target cells and interfering with the PDT treatment itself. […]
Dark toxicity was determined as described in the paragraph “PDT-treatment” below, except that the plate was not illuminated. […]

[2] = system: sebaceous glands and epidermis of minipig skin; experiment: Minipig skin biopsies, fluorescence microscopy; type: in vivo, minipigs; details: minipig skin biopsy sections; 15% cream
Description: The cream was administered as described above. At t=0 (i.e. prior to administration of the cream), 1.5, 5 and 12 hours, biopsy samples were taken using a 10 mm biopsy punch (AcuPunch 10 mm, Acuderm, USA). The samples were taken and handled in a minimally illuminated room. Each sample was trimmed free of any subcutaneous fatty tissue and thereafter cut in half. Each sample was then snap frozen in liquid nitrogen, in an aluminium foil bag or similar, and transferred to a −80° C. freezer.
The biopsy samples were sectioned at 10 μm and again care was taken to minimize the surrounding light. When sebaceous glands and epidermis could be identified, a series of 3 consecutive sections was prepared from each sample. The sections were examined within 15 minutes in a Leica DMRXE microscope equipped for both ordinary light microscopy and fluorescence microscopy. Epidermis and sebaceous glands were localized using conventional light microscopy. This was carried out within 5 seconds and then the light source was changed to a mercury lamp/fluorescence with filter set; excitation filter 390-447 nm, beam splitter 455 nm and an emission filter >600 nm. The sections were immediately photographed. Without moving the specimen the light source was changed back to conventional light microscopy and the sections were photographed in exactly the same position as for the fluorescence microscopy. As well as the epidermis and sebaceous glands, the dermis was analysed and if fluorescence was found also photographed. To further investigate localisation of all analyzed structures, the sections were stained with hematoxylin/eosin.
Image analysis was performed using the software program, Image J (version Fiji-win32.exe). With this program, average fluorescence intensity per pixel was measured from the saved images.

back skin of minipigs = experiment: In vivo skin fluorescence study in minipigs (FluoDerm); details: 15% cream in Unguentum Merck, 0.5 g per site, 1.5, 5 and 12 hours after application, FIG. 1
Description: Compound 1c (carboxymethyl 5-amino-4-oxopentanoate hydrobromide, prepared according to Example 1c) was formulated as a cream in Unguentum Merck (15%, 150 mg/g; 0.56 mmol).
The cream was administered to the back skin of minipigs. Prior to application of the cream, the surrounding skin was cleaned with sterile water and gauze, if necessary. 0.5 g cream was applied to each test site (50 mm in diameter) resulting in a homogenous cream layer and then covered with a dressing (Tegaderm®). The gauze Vet-Flex® was used to keep the dressing in place.
Skin fluorescence at 630 nm was assessed prior to cream application and at 1.5, 5 and 12 hours after cream application using the FluoDerm instrument (DiaMedico ApS, Denmark) according to the manufacturers instructions. The FluoDerm instrument is a hand-held device for objective real-time in vivo measuring of average fluorescence over a circular field with diameter 40 mm. Measurements were electronically corrected for the actual ambient light.

[3] = system: Salmonella typhimurium, TA98 and TA100; experiment: Ames test (mutagenic and photomutagenic potential); type: cell-based; details: absence and presence of S-9, absence and presence of visible light
Excerpt: The Ames test (see B. N. Ames et al, Methods for detecting carcinogens and mutagens with the Salmonella/mammalian-microsome mutagenicity test. Mutation Research 31, 347-364, 1975) is a standard test method approved by the regulatory authorities to detect an ability of a test chemical compound to induce mutation in certain bacterial strains. If a test chemical compound induces such mutations, it cannot be used in a pharmaceutical compound for use in humans.
The objective of this study was to evaluate the mutagenic potential and photomutagenic potential of compound 1c, carboxymethyl 5-amino-4-oxopentanoate hydrobromide (prepared according to Example 1c) by examining its ability to revert two histidine-requiring strains of Salmonella typhimurium, TA98 and TA100, in the absence and presence of a rat liver metabolising system (S-9) and also in the absence and presence of visible light. The latter was assessed since compound 1c is taken up by the bacteria cells and converted into a photosensitiser, which, upon illumination of said cells, might induce mutagenic products.

[4] = system: skin of healthy nude mice; experiment: In vivo skin fluorescence study in healthy nude mice; details: cream in Unguentum Merck, equimolar (16-19%), about 100 μl on back, 6 hours in the dark, excitation 365 and 405 nm, mean of 5 mice
Description: A study was carried out to assess the potential of the compounds of the invention as precursors for photosensitisers for skin application. As such, the compounds of the invention need to be able to penetrate the skin, to be taken up by the cells in the skin and to be converted to photosensitisers. The result of this process can be visualized by exposing the skin to light which excites the photosensitiser molecules and to determine the amount of energy which is released in the form of fluorescence when the excited photosensitiser molecules relax to an energetically lower state.
Compounds 2, 4 and 7 above were formulated as creams in Unguentum Merck. The compounds were tested in equimolar amounts:
3 groups of mice (5 mice/group, each mouse of one group receiving the same cream formulation) were included in the experiment. About 100 μl of cream formulation was applied onto the back of one mouse. The mice were kept in the dark for 6 hours prior to skin fluorescence measurement to avoid photobleaching. For assessment of skin fluorescence, a fluorescence camera (Medeikonos PDD/PDT, Medeikonos AB, Gothenburg, Sweden) was used and images of the back of each mouse were taken. Excitation was carried out at wavelengths of 365 and 405 nm and 2 s illumination time. Each image was calibrated to a fluorescence standard (Uranyl Standard, J&M, Analytische Mess- and Regeltechnik GmbH, Hamburg, Germany) and adjusted for background fluorescence. The mean amount of skin fluorescence in each image was calculated by means of image analyzer-software (MatLab 7.2.0.232, Math-Works, Natick, Mass., USA) and the mean amount of skin fluorescence for each group of mice (5 mice/compound) was calculated.

[5] = system: Rat bladder cells (AY-27); experiment: PpIX measurements in rat bladder cells; type: cell-based; details: AY-27 cells; for PpIX Mean ± SD: 2 hours incubation
Description: Rat bladder cells (AY-27) were grown in the culture medium (RPMI 1640 supplemented with 9% fetal calf serum 1% L-glutamin (200 mM) and 1% penicillin (10 000 UI), streptomycin (10 000 μg·mL^−1). Exponentially growing cells (AY-27) were incubated for 2 hours with freshly prepared solutions of 0.8 mM HAL (which is a tenth of the concentration which is used for bladder cancer […]). Control cells received serum-free medium without any test or reference compounds. After the incubation, the solutions or the medium was discarded and the cells were rinsed 2 times with ice-cooled PBS. PpIX was extracted from cells using an ice-cold lysis extraction mixture, consisting of ethanol/DMSO/acetic acid (80/20/1, v/v/v). The cell lysate was centrifuged (400 g, 10 min, 2° C.), the pellet was grinded and the suspension was sonicated for 15 min before being centrifuged. The fluorescence signal of PpIX was measured with a Perkin-Elmer LS 55 spectrometer (Perkin-Elmer, Beaconsfield, UK) and expressed as a function of the protein content. The fluorescence intensity at 635 nm in each sample was reported on a calibration curve established with PpIX (Sigma-Aldrich, France) diluted in extraction mixture as described above. The PpIX concentration was expressed relative to the protein content. Briefly, a lysis buffer mixture (1 mM EDTA, 1% Triton X-100 and 10 mM Tris-HCl; pH 7.4) was added to frozen cell dishes together with 500 mM PMSF (anti-protease) solution in DMSO. Lysates were kept on ice for 30 minutes and centrifuged at 4° C. for 20 minutes at 15 000 g. The protein content was then measured against a BSA calibration curve by a Biorad DC protein assay kit (Bio-Rad, France) based on a method developed by Lowry.

[6] = system: Rat bladder cells (AY-27); experiment: Cytotoxicity in rat bladder cells (MTT test); type: cell-based; details: AY-27 cells; for Cytotoxicity: 2 hours, MTT test
Description: All experiments were performed in 4-5 replicates under subdued light. For concentrations of compounds 1 mM, the cytotoxicity was assessed with MTT test. Exponentially growing cells were incubated with freshly prepared solution or medium as described above for 2 hours in 96-well plates. After the incubation, the solutions or the medium was discarded and the cells were washed twice with PBS. Then 50 μl of MTT (2.5 mg·ml^−1) was added to 150 μl of RPMI serum-free medium per well and incubated for 3 hours. Absorbance was measured by dissolving formazan crystals with 50 μl of DMSO. The absorbance was normalized to that of control cells.

Row | Structure (SMILES) | Dark toxicity [1] | Selectivity for sebaceous glands [2] | Time after cream application at which fluorescence was also seen in the epidermis [2] | Time after cream application at which fluorescence was seen in the sebaceous glands [2] | Skin fluorescence at 630 nm over time (back skin of minipigs) | Induction of mutation or photomutation [3] | Skin fluorescence [4] | PpIX Mean ± SD ([5]; 1 mM) | PpIX Mean ± SD ([5]; 5 mM) | PpIX Mean ± SD ([5]; 15 mM) | PpIX concentration compared to HAL (0.8 mM) ([5]; compound at 1 mM) | PpIX concentration compared to HAL (0.8 mM) ([5]; compound at 5 mM) | Cytotoxicity ([6]; 1 mM) | Cytotoxicity ([6]; 5 mM) | Cytotoxicity ([6]; 15 mM) | Cytotoxicity at higher concentration ([6]; concentration higher than 5 mM)
1 | NCC(=O)CCC(=O)OCC(=O)O [Compound 1c, carboxymethyl 5-amino-4-oxopentanoate hydrobromide] | No dark toxicity was observed | shows a selectivity for sebaceous glands | 5 h | 1.5 h | skin fluorescence increased with time | did not induce mutation or photomutation |  |  |  |  |  |  |  |  |  | 
2 | NCC(=O)CCC(=O)OCCC(=O)O [Compound 4, 2-carboxyethyl 5-amino-4-oxopentanoate hydrobromide] | No dark toxicity was observed |  |  |  |  |  | 8473 a.u. | 45 ± 8 pmoles/mg protein | 141 ± 24 pmoles/mg protein | 180 ± 94 pmoles/mg protein | significantly lower compared to HAL | About half of the PpIX concentration of HAL | 3 % of control | 14 % of control | 39 % of control | cytotoxicity was induced
